Experimental data published in ChEMBL document CHEMBL1201862, “PubChem BioAssay data set” (2004).
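Values below derive from 48-hour exposures of cells grown in 96-well plates, with endpoints linearly interpolated between the two concentrations bracketing the appropriate inhibition level. GI50 marks 50% less growth.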 Calls of active or inactive are those of the source. Rule as the data show it: active = GI50 up to about 1.1 µM and inactive = higher.

Assays:
Assay in all cases: inhibition of tumour cell growth, NCI panel, 48 h
[1] = system: K562
[2] = system: UACC-257
[3] = system: ACHN
[4] = system: HOP-92
[5] = system: HCT-116
[6] = system: A549
[7] = system: SK-MEL-5
[8] = system: LOX IMVI
[9] = system: KM12
[10] = system: HOP-62
[11] = system: M14
[12] = system: RXF 393
[13] = system: OVCAR-5
[14] = system: SW-620
[15] = system: SN12C
[16] = system: Malme-3M
[17] = system: TK-10
[18] = system: UACC-62
[19] = system: OVCAR-4
[20] = system: NCI-H460

ON(Cc1ccccc1)C(=S)c1ccccc1
GI50 [1]: 3.27 µM (inactive) | GI50 [2]: 4.72 µM (inactive) | GI50 [3]: 4.21 µM (inactive) | GI50 [4]: 50.7 µM (inactive) | GI50 [5]: 3.4 µM (inactive) | GI50 [6]: 4.35 µM (inactive) | GI50 [7]: 4.47 µM (inactive) | GI50 [8]: 2.24 µM (inactive) | GI50 [9]: 4.76 µM (inactive) | GI50 [10]: 4.85 µM (inactive) | GI50 [11]: 5.21 µM (inactive) | GI50 [12]: 8.97 µM (inactive) | GI50 [13]: 17.9 µM (inactive) | GI50 [14]: 4.23 µM (inactive) | GI50 [15]: 8.41 µM (inactive) | GI50 [16]: 25.4 µM (inactive) | GI50 [17]: 21.8 µM (inactive) | GI50 [18]: 2.43 µM (inactive) | GI50 [19]: 2.61 µM (inactive) | GI50 [20]: 1.93 µM (inactive)

Brc1cc(CCOC2CCCCO2)c(-c2sccc2CCOC2CCCCO2)s1 (stereo not given)
GI50 [1]: 13.8 µM (inactive) | GI50 [2]: 35.5 µM (inactive) | GI50 [3]: 50.8 µM (inactive) | GI50 [4]: > 65.2 µM (inactive) | GI50 [5]: 23.2 µM (inactive) | GI50 [6]: 24.8 µM (inactive) | GI50 [7]: 26.9 µM (inactive) | GI50 [8]: 26.3 µM (inactive) | GI50 [9]: 27 µM (inactive) | GI50 [10]: 63.2 µM (inactive) | GI50 [11]: 31.8 µM (inactive) | GI50 [12]: 0.8 µM (active) | GI50 [13]: > 100 µM (inactive) | GI50 [14]: > 65.8 µM (inactive) | GI50 [15]: > 100 µM (inactive) | GI50 [16]: 24.9 µM (inactive) | GI50 [17]: > 59.6 µM (inactive) | GI50 [18]: 58.5 µM (inactive) | GI50 [19]: 48 µM (inactive) | GI50 [20]: 33.4 µM (inactive)

CCc1ncc(C(C)(O)c2ccccc2)n1Cc1ccccc1 (stereo not given)
GI50 [1]: 33.4 µM (inactive) | GI50 [2]: 29.4 µM (inactive) | GI50 [3]: 82.2 µM (inactive) | GI50 [4]: 67.3 µM (inactive) | GI50 [5]: 0.124 µM (active) | GI50 [6]: 35.5 µM (inactive) | GI50 [7]: 17.8 µM (inactive) | GI50 [8]: 29.8 µM (inactive) | GI50 [9]: 31 µM (inactive) | GI50 [10]: < 0.01 µM (active) | GI50 [11]: 0.294 µM (active) | GI50 [12]: > 100 µM (inactive) | GI50 [13]: 98.6 µM (inactive) | GI50 [14]: 31.6 µM (inactive) | GI50 [15]: 21.7 µM (inactive) | GI50 [16]: 41 µM (inactive) | GI50 [17]: 33.5 µM (inactive) | GI50 [18]: 20.9 µM (inactive) | GI50 [19]: 35.8 µM (inactive) | GI50 [20]: 54.7 µM (inactive)

CC(C)C1=C(O)C(=O)C2=C(C1=O)C(OC=O)C(O)C1C(C)(C)CCCC21C (stereo not given)
GI50 [1]: 6.35 µM (inactive) | GI50 [2]: 9.1 µM (inactive) | GI50 [3]: 3.87 µM (inactive) | GI50 [4]: 7.46 µM (inactive) | GI50 [5]: 7.73 µM (inactive) | GI50 [6]: 14.7 µM (inactive) | GI50 [7]: 3.7 µM (inactive) | GI50 [8]: 3.33 µM (inactive) | GI50 [9]: 12 µM (inactive) | GI50 [10]: 37.6 µM (inactive) | GI50 [11]: 11.9 µM (inactive) | GI50 [12]: 6.82 µM (inactive) | GI50 [13]: 15.8 µM (inactive) | GI50 [14]: 3.1 µM (inactive) | GI50 [15]: 10.1 µM (inactive) | GI50 [16]: 7.08 µM (inactive) | GI50 [17]: 13.4 µM (inactive) | GI50 [18]: 6.19 µM (inactive) | GI50 [19]: 10.2 µM (inactive) | GI50 [20]: 3.22 µM (inactive)
